The subject of assay [1] is wild type and ORL knockout mice. Description: Blockade of fasting-induced hyperphagia in mice. In kind it is in vivo, mouse. The source says:
Blockade of fasting-induced hyperphagia in rats is an accepted model for hyperphagic eating disorders. […] Mice are individually housed a minimum of 3 days prior to the onset of testing to eliminate any effects of stress due to the change from group to individual housing. Three mice/genotype are randomly assigned to each treatment group on the test day. Pre-fast body weight measurements are taken, and food is then removed from cages overnight. Mice are fasted for approximately 15 hr. The next morning, the mice are given one of three doses of drug or vehicle via oral gavage 30 min. prior to gaining access to food. Drugs are dissolved in 20% Captisol dissolved in 25 mM phosphate buffer, pH 2.0. Measurements of body weight are taken immediately prior to drug treatment or 24 hr. after access to food is restored. […] Measurements of food intake are recorded 1 hr following access to food, as indicated, by weight of food remaining at 1 hr. It should be noted that food intake measured is during the light phase, a time during which mice are typically at rest and not normally eating. Following initial testing, mice are rested for 1 week with access to unlimited chow.

For assay [2], the target named is T1, nociceptin/ORL1 receptors (Rattus norvegicus, UniProt P35370).
T1 construct: rats are sacrificed by cervical dislocation and the hypothalamus is removed; from tissue; host or cells: rat hypothalamus (in vivo occupancy)
T1 sequence (P35370 whole entry): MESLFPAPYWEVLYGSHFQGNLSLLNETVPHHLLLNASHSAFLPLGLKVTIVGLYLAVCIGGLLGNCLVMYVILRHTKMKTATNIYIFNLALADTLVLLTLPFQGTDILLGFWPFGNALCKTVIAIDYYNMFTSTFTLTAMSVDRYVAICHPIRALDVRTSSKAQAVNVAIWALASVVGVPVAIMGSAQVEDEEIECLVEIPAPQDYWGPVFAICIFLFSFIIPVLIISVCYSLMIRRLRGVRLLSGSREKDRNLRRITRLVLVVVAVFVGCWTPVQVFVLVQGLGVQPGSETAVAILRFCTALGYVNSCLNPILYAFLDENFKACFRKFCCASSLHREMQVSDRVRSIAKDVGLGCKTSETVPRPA
Nature of the assay: In vivo receptor occupancy (LC/MS/MS, RO Tracer) in hypothalamus. The note with it: iv, intravenously 30 mg/kg 1 hr. prior to RO Tracer, positive control.

The subject of assay [3] is NIH-Swiss mice; 129S6 wild type and nociceptin/ORL1 receptor knockout mice. Description: Forced-swim test in mice (mFST). Type of assay: in vivo, mouse. The source says:
Forced-Swim Test in Mice (mFST) mFST is an established in vivo assay for antidepressant activity (Li et al. J Pharmacol Exp Ther. 319(1):254-9, 2006.). […] The mFST was used to evaluate potential antidepressant-like activity of novel nociceptin/ORL1 antagonists according to previously published methods (Li et al. J Pharmacol Exp Ther. 319(1):254-9, 2006.). Briefly, male NIH-Swiss mice (Harlan Sprague-Dawley, Indianapolis, Ind.) weighing between 25-30 g are used. Group housed animals are removed from the vivarium to the testing area in their own cages and allowed to adapt to the new environment for at least 1 hour before testing. Alternatively, male 129S6 wild type and nociceptin/ORL1 receptor knockout mice were used to confirm dependence of the response to compound was nociceptin/ORL1 receptor dependent. All compounds are prepared in 20% Captisol, 25 mM phosphate buffer, pH 2.0 on the day of use. Mice are placed in a cylinder (diameter: 10 cm; height: 25 cm) filled with 6 cm of water (22-25° C.) for 6 min. The duration of immobility during the last 4 min. of the 6 min. period of the test was scored. A mouse is recorded as immobile when floating motionless or making only those movements necessary to keep its head above water.

Where [4] appears, read: wild type mice, oral gavage 30 min. prior to food, food intake 1 hr.

Turning to `Cc1nn(-c2c(F)cccc2CO)cc1CN1CCC2(CC1)OCC(F)(F)c1cc(Cl)sc12.O=C(O)C(O)C(O)C(=O)O` [Example 1, [2-[4-[(2-Chloro-4,4-difluoro-spiro[5H-thieno[2,3-c]pyran-7,4′-piperidine]-1′-yl)methyl]-3-methyl-pyrazol-1-yl]-3-fluoro-phenyl]methanol (L)-Tartrate], the fasting-induced hyperphagia entry in assay [1] (setting [4]) is “substantially block fasting-induced hyperphagia”.
In turn, `Cc1cccc2c1CC[C@@H](CN1CCC(c3c(Cl)cccc3Cl)CC1)C[C@H]2O` [SB612111, (−)-cis-1-methyl-7-[[4-(2,6-dichlorophenyl)piperidin-1-yl]methyl]-6,7,8,9-tetrahydro-5H-benzocyclohepten-5-ol, reference compound] had a receptor occupancy at 30 mg/kg in assay [2] of approximately 100%.
On to `Clc1cccc(N2CCNCC2)c1` [mCPP, meta-chlorophenylpiperazine, reference compound], for which the fasting-induced hyperphagia entry in assay [1] (ORL-1 knockout mouse strain) and in assay [1] (setting [4]) was “significantly reduce fasting induced hyperphagia” each time.
On to `CN(C)CCCN1c2ccccc2CCc2ccccc21` [imiprimine, reference compound], for which the immobilization time result in assay [3] (ORL-1 knockout mice) and in assay [3] (wild type mice) was “reduce immobilization times” in each case.

Source of the values: patent publication US20120214784A1, “SPIROPIPERIDINE COMPOUNDS AS ORL-1 RECEPTOR ANTAGONISTS” (ELI LILLY AND COMPANY, priority 2009, published 2012).
